# System: Apis mellifera
# Test: Tunnel test / spray application / bees: brood development (share of comb cells)
# Format: in vivo
# Details: for Brutentwicklung: result in words, 75 und 150 g a.s./ha
# Source text: Der Test wurde gemäß EPPO (European Plant Protection Organisation) Leitlinie 170 wie folgt durchgeführt:
# Über alle Waben eines Bienenstocks wird der jeweilige Anteil an Zellen bestimmt, der durch Pollen, Nektar, Eier, Larven oder Puppen belegt ist bzw. leer ist. […]
# [1] = 75 g a.s./ha, 1 Tag vor Applikation
# [2] = 75 g a.s./ha, 6 Tage nach Applikation
# [3] = 75 g a.s./ha, 14 Tage nach Applikation
# [4] = 75 g a.s./ha, 27 Tage nach Applikation
# [5] = 150 g a.s./ha, 1 Tag vor Applikation
# [6] = 150 g a.s./ha, 6 Tage nach Applikation
# [7] = 150 g a.s./ha, 14 Tage nach Applikation
# [8] = 150 g a.s./ha, 27 Tage nach Applikation
compound,measurement,setting,value
"O=C1C=C(N(Cc2ccc(Cl)nc2)CC(F)F)CO1 [I-5, 4-{[(6-Chlorpyrid-3-yl)methyl](2,2-difluorethyl)amino}furan-2(5H)-on]",Anteil an Zellen: Eier,[1],"13,9%"
same,Anteil an Zellen: Larven,[1],"9,2%"
same,Anteil an Zellen: Leer,[1],"26,7%"
same,Anteil an Zellen: Nektar,[1],"12,5%"
same,Anteil an Zellen: Pollen,[1],"3,1%"
same,Anteil an Zellen: Puppen,[1],"34,7%"
same,Anteil an Zellen: Eier,[2],"14,7%"
same,Anteil an Zellen: Larven,[2],"8,3%"
same,Anteil an Zellen: Leer,[2],"32,8%"
same,Anteil an Zellen: Nektar,[2],"12,5%"
same,Anteil an Zellen: Pollen,[2],"4,4%"
same,Anteil an Zellen: Puppen,[2],"27,2%"
same,Anteil an Zellen: Eier,[3],"21,4%"
same,Anteil an Zellen: Larven,[3],"19,7%"
same,Anteil an Zellen: Leer,[3],"30,6%"
same,Anteil an Zellen: Nektar,[3],"8,6%"
same,Anteil an Zellen: Pollen,[3],5%
same,Anteil an Zellen: Puppen,[3],"14,7%"
same,Anteil an Zellen: Eier,[4],"16,7%"
same,Anteil an Zellen: Larven,[4],"6,7%"
same,Anteil an Zellen: Leer,[4],"20,7%"
same,Anteil an Zellen: Nektar,[4],"13,2%"
same,Anteil an Zellen: Pollen,[4],"3,3%"
same,Anteil an Zellen: Puppen,[4],"39,4%"
same,Anteil an Zellen: Eier,[5],"13,6%"
same,Anteil an Zellen: Larven,[5],"16,4%"
same,Anteil an Zellen: Leer,[5],"20,8%"
same,Anteil an Zellen: Nektar,[5],"14,2%"
same,Anteil an Zellen: Pollen,[5],"1,4%"
same,Anteil an Zellen: Puppen,[5],"33,6%"
same,Anteil an Zellen: Eier,[6],15%
same,Anteil an Zellen: Larven,[6],"6,1%"
same,Anteil an Zellen: Leer,[6],"29,4%"
same,Anteil an Zellen: Nektar,[6],"14,4%"
same,Anteil an Zellen: Pollen,[6],"3,9%"
same,Anteil an Zellen: Puppen,[6],"31,1%"
same,Anteil an Zellen: Eier,[7],"17,8%"
same,Anteil an Zellen: Larven,[7],"16,7%"
same,Anteil an Zellen: Leer,[7],"34,4%"
same,Anteil an Zellen: Nektar,[7],"12,2%"
same,Anteil an Zellen: Pollen,[7],"4,2%"
same,Anteil an Zellen: Puppen,[7],"14,7%"
same,Anteil an Zellen: Eier,[8],"15,3%"
same,Anteil an Zellen: Larven,[8],"7,2%"
same,Anteil an Zellen: Leer,[8],"21,9%"
same,Anteil an Zellen: Nektar,[8],"16,4%"
same,Anteil an Zellen: Pollen,[8],"4,2%"
same,Anteil an Zellen: Puppen,[8],35%
same,Brutentwicklung,6 Tage nach Applikation,keine Änderung
same,Brutentwicklung,14 Tage nach Applikation,keine Änderung
same,Brutentwicklung,27 Tage nach Applikation,keine Änderung

# From patent publication EP2193713A1, “Method for fighting animal pests without damaging pollinating insects” (Bayer CropScience AG, priority 2008, dated 2010)
